Measured values as given in PubChem BioAssay AID179 (DTP/NCI, 2004).
The source made the active and inactive calls.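 Rule for the calls: active = compounds giving half or more protection of infected cells from virus-caused growth loss, again on retest; inactive = the rest.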 Where a SMILES comes first, the peptide text is derived from it. The star is where a group is joined. Cbz = O=C(OCc1ccccc1)*

Tested on: CEM cells HIV-1 protection, formazan growth assay
Test: NCI AIDS Antiviral Assay
Conditions: for IC50: measured here: growth of uninfected CEM cells
In short: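 CEM (human) cells, HIV-1 infected vs uninfected, 5-point dosing, formazan growth read-out. Retest threshold 50% protection.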

SMILES | EC50 [µM] | IC50 [µM] | outcome
COC(=O)c1cccc(OC)c1C#Cc1c(OC)cccc1OC | > 200 | 21.9 | –
COC(=O)c1ccc(N2CC=C(C)C(c3ccc(OC)cc3)O2)cc1 (stereo unspecified) | > 15.5 | > 15.5 | –
COc1ccc(C2Oc3cc(OC)c(O)cc3[C@@H]2C)cc1 (stereo partly specified) | > 66.1 | 6.46 | –
CC(=O)c1cccc(NC(=O)/C(=N\NC(=S)NN)C2C(=O)Nc3ccccc3S2=O)c1 (stereo unspecified) | > 282 | > 282 | –
CC1=CC(O)(c2ccccn2)P(=O)(c2ccccc2)C=C1C (stereo unspecified) | > 794 | > 794 | –
Cc1ccccc1NC(=O)CC1C(=O)Nc2ccccc2S1=O (stereo unspecified) | > 21.9 | > 21.9 | –
NC(=O)N/N=C1/CCCCC1c1ccccc1 (stereo unspecified) | > 407 | > 407 | –
Cc1cc(C)nc(NS(=O)(=O)c2ccc(N=c3c4ccccc4n(Cc4ccccc4)c4ccccc34)cc2)n1 | – | – | inactive
CO/C(N)=C(\C#N)N=Cc1ccco1 | > 200 | 191 | –
N#CC(C(=O)CCC(=O)Nc1cccc(Cl)c1)c1ccccc1 (stereo unspecified) | > 759 | > 759 | –
COc1cc2c(c(OC)c1OC)C(=O)[C@@H](O)[C@H]2NC(N)=O | > 200 | > 200 | –
CN(C)c1ccc(/C=C(\NC(=O)c2ccccc2)C(=O)Nc2ccccc2C(=O)N/N=C/c2ccc(N(C)C)cc2)cc1 | > 25.1 | > 25.1 | –
CCOC(=O)Cc1nc(/C(C#N)=C/c2ccco2)[nH]c(=O)c1C#N | – | – | inactive
CC1(C)OC(=O)c2c(cc(N3CCOCC3)oc2=O)O1 | > 200 | > 200 | –
Nc1nc2c(c(=O)[nH]1)NC(CO)CN2 (stereo unspecified) | – | – | inactive
CCO[C@]12C[C@H](OC)[C@@]3(O)CC(C1[C@H]3OCc1ccccc1)C13C4C2[C@H](OC)C1[C@](COC)(CN4CC)[C@H](O)C[C@@H]3OC (stereo partly specified) | 17 | 117 | –
CSc1ccc(/C=C2\CNC/C(=C\c3ccc(SC)cc3)C2=O)cc1 | > 200 | 58.9 | –
CCCCN(CCCC)C(=O)COc1cc2c(O)c3c(O)c(C)c4c(c13)C(=O)C(C)(O/C=C/C(OC)C(C)C(OC(C)=O)C(C)C(O)C(C)C(O)C(C)/C=C/C=C(\C)C(=O)N2)O4 (stereo unspecified) | > 91.2 | 11 | –
O=C(O)c1cc(O)cc(O)c1CNc1ccc(/C=C\c2ccc(NCc3c(O)cc(O)cc3C(=O)O)cc2S(=O)(=O)O)c(S(=O)(=O)O)c1 | > 87.1 | > 87.1 | –
NC(=N\N=C/c1ccc(Cl)cc1)/C(N)=N\N=C/c1ccc(Cl)cc1 | – | – | inactive
CC(C)C(O)C(=O)C(O)C(C)C (stereo unspecified) | > 1020 | > 1020 | –
O=C(Nc1cccc(-c2nc3ccccc3[nH]2)c1)c1ccc(C(=O)Nc2cccc(-c3nc4ccccc4[nH]3)c2)cc1 | > 200 | 91.2 | –

SMILES | EC50 [µM] | IC50 [µM] | outcome
Cc1cn(C2CC(O)C(CO)C2C)c(=O)[nH]c1=O (stereo unspecified) | > 200 | > 200 | –
O=P1(N(CCCl)CCCl)NCCCO1 (stereo unspecified) | > 955 | 302 | –
Cc1cc(N(CCC#N)CCC#N)ccc1N=Nc1ccc(S(N)(=O)=O)cc1 | > 170 | > 170 | –
COc1c(Cl)cc(C(=CCCCCN(C(=O)C=C(c2cc(Cl)c(OC)c(C(=O)O)c2)c2cc(Cl)c(OC)c(C(=O)O)c2)[C@H]2CC[C@@]3(C)[C@@H](CC[C@@H]4[C@@H]3CC[C@]3(C)[C@@H](C(C)CCCC(C)C)CC[C@@H]43)C2)c2cc(Cl)c(OC)c(C(=O)O)c2)cc1C(=O)O (stereo partly specified) | 12.9 | 81.3 | –
Cc1cccc(-n2c(C)nc3ccc(NC(=S)Nc4ccccc4)cc3c2=O)c1 | > 200 | 110 | –
O=C1CN(CCN2CCCCC2)CC(=O)N2CCCCN12 | > 200 | > 200 | –
CCn1c(=N)sc2nc3ccccc3n2c1=O | > 200 | 58.9 | –
O=Cc1ccc(-c2ccc(S(=O)(=O)O)cc2)o1 | > 200 | 93.3 | –
O=C(NCCCCCCO)c1cccc2cc3ccccc3nc12 | > 200 | 18.6 | –
OC(CBr)C(O)C(O)C(O)CBr (stereo unspecified) | – | – | inactive
CCCCOC(=O)/C=C(\Br)C(=O)OCCCC | – | – | inactive
O=C(Nc1cccnc1)c1ccccc1[Se][Se]c1ccccc1C(=O)Nc1cccnc1 | 3.24 | 6.92 | –
O=C(c1ccc(Cl)cc1)c1c(O)c2ccccc2oc1=O | > 200 | > 200 | –
Cc1c(S(=O)(=O)c2ccccc2)c(N)n(CCN(C)C)c1C | > 200 | 44.7 | –
CCOC(=O)C1(C#N)C(c2ccccc2)CC(O)(c2ccc(Cl)cc2)C(C(=O)c2ccc(Cl)cc2)C1c1ccccc1 (stereo unspecified) | > 12 | > 12 | –
CCCCCCCCCCCC(=O)OCCNC(=O)C[n+]1ccccc1 | > 200 | > 200 | –
COC(=O)CCN1CCN(CCO)CC1C (stereo unspecified) | > 200 | > 200 | –
CN(C)c1ccc(/C=C(\NC(=O)c2ccccc2)C2=NC(CCC(=O)O)C(=O)O2)cc1 (stereo unspecified) | > 50.1 | > 50.1 | –
Cc1ccc(S(=O)(=O)OCC2COC(C)(C)O2)cc1 (stereo unspecified) | > 871 | > 871 | –
CCSSc1ccccc1C(=O)O | > 200 | 32.4 | –
c1ccc(COc2ccc3[nH]c4c(ncc5[nH]c6ccccc6c54)c3c2)cc1 | – | – | inactive
CC(=O)/C(=C\n1c(=S)[nH]c2ccc([N+](=O)[O-])cc21)C(=O)Nc1ccccc1C | > 200 | 89.1 | –

SMILES | EC50 [µM] | IC50 [µM] | outcome
CCC(N)Cc1c[nH]c2ccccc12 (stereo unspecified) | > 200 | > 200 | –
CCCCC1Sc2cc(OC)cc3nnn(c23)C1=O (stereo unspecified) | > 200 | > 200 | –
CC(O)C(NC(=O)c1ccccc1)C(=O)N(Cc1ccccc1)Cc1ccccc1 (stereo unspecified) | > 17.8 | > 17.8 | –
O=C(O)c1cnnc2ccccc12 | > 1450 | > 1450 | –
Cc1cc2c(C)n(Cc3ccccc3Cl)nc2c(C(=O)O)c1C | > 759 | 148 | –
Cc1ccc(NC(=O)CCC(=O)C(C#N)c2ccc(Cl)cc2)cc1C (stereo unspecified) | > 708 | > 708 | –
CC1=Nc2c(C#N)ncn2N=C(C)C1 | > 200 | > 200 | –
O=C(OC1C#CCSCC#C/C=C\1)c1cnc2ccccc2n1 (stereo unspecified) | > 200 | 33.1 | –
O=C(O)c1ccc(CS(=O)(=O)c2ccc(Cl)cc2)cc1 | > 794 | > 794 | –
CC(=O)OCC1OC(N2C(=O)[C@H](Oc3ccccc3)[C@@H]2c2ccccc2)C(OC(C)=O)C(OC(C)=O)C1OC(C)=O (stereo partly specified) | > 100 | > 100 | –
N#C/C(=C\c1ccc(Cl)cc1)c1nc2ccccc2c(=O)[nH]1 | – | – | inactive
C[N+](C)([O-])C12CC3CC(CC(C3)C1)C2 | > 200 | > 200 | –
COc1cc(OC)c(-c2cc(=O)c3c(OC)c(OC)c(OC)c(OC)c3o2)cc1OC | > 200 | 19.5 | –
O=C(c1cccs1)N(C(=S)N1CCN(c2ccccc2)CC1)c1ccccc1 | > 12.9 | > 12.9 | –
O=C(/C=C/c1ccccc1)c1c2ccccc2cc2ccccc12 | > 8.91 | > 8.91 | –
O=[N+]([O-])c1ccc(OCCC[P+](c2ccccc2)(c2ccccc2)c2ccccc2)c(Cl)c1 | > 200 | 1.7 | –
CC1(C)[C@H]2CC[C@]1(C)[C@H](OC(=O)NNC(=O)O[C@@H]1C[C@@H]3CC[C@@]1(C)C3(C)C)C2 | > 200 | 12.6 | –
CN1CCC2(CC1)SC[C@H]1C(=O)N(c3ccc(Cl)cc3)C(=O)N12 | > 200 | 120 | –
CCOP(=O)(OCC)/C(C#N)=C/c1cnc[nH]1 | > 200 | > 200 | –
CCCc1cc(-c2ccc(N=Nc3cc(S(=O)(=O)O)c4ccccc4c3N)c(CCC)c2)ccc1N=Nc1cc(S(=O)(=O)O)c2ccccc2c1N | 105 | 182 | –
O=[N+]([O-])c1cccc(C2ON2C2CCCCC2)c1 (stereo unspecified) | > 89.1 | 5.01 | –
COc1cccc(/C=N\N=C\c2cccc(OC)c2O)c1O | > 200 | 66.1 | –

SMILES | EC50 [µM] | IC50 [µM] | outcome
CCOC(=O)CNC(=O)C(CC(C)C)NC(=O)C1CCCN1C(=O)OCc1ccccc1 (stereo not drawn) (Cbz-Pro-Leu-Gly-OEt; configuration not given here) | > 562 | 37.2 | –
NC1c2c(Br)sc(N3CCCC3)c2C(=O)C1O (stereo unspecified) | > 200 | > 200 | –
COC(OC)C1OC(CO)C(n2ccc(N)nc2=O)C1O (stereo unspecified) | > 200 | > 200 | –
O=C(O)C(Cc1ccccc1)NC(=O)C1CCCN1C(=O)OCc1ccccc1 (stereo not drawn) (Cbz-Pro-Phe-OH; configuration not given here) | > 631 | > 631 | –
CCOC(=O)C(=O)/C(=C/N1C(=O)CC(=O)NC1=S)C(=O)OCC | > 200 | > 200 | –
C(=N\Nc1nnc2c(n1)[nH]c1ccccc12)/c1cccnc1 | > 200 | > 200 | –
O=S(=O)(O)CCCCO | > 200 | > 200 | –
COc1cc(/C=C/C(=O)OCC23CC[C@@]4(C(=O)O)CCC(C)[C@H](C)C4C2=CCC2[C@@]4(C)CC[C@H](O)C(C)(C)C4CC[C@]23C)ccc1O (stereo partly specified) | > 200 | 1.05 | –
OCCCSc1ccccc1SCCCO | > 52.5 | > 52.5 | –
O=[N+]([O-])C(/C=C(\Cl)[N+](=O)[O-])=C(N1CCOCC1)N1CCOCC1 | > 200 | 110 | –
CCOC(=O)NC1CS(=O)(=O)CC1Cl (stereo unspecified) | > 200 | > 200 | –
c1ccc(-c2nnc(SSSSc3nnc(-c4ccccc4)o3)o2)cc1 | > 200 | 107 | –
Cc1cc2c(-c3ccccc3)c3cc(C)c(N)cc3nc2cc1N | > 200 | 2.75 | –
CC[C@@]1(O)C(=O)OCc2c1cc1n(c2=O)Cc2cc3ccccc3nc2-1 | > 0.1 | 0.0162 | –
C#CCn1c(=O)c2cc(OC)c(OC)cc2n(CC#C)c1=O | – | – | inactive
Cn1cc(NC(=O)c2cc(NC(=O)CCCCCCCCCC(=O)Nc3cc(C(=O)Nc4cc(C(=O)NCCC(=N)N)n(C)c4)n(C)c3)cn2C)cc1C(=O)NCCC(=N)N | 4.37 | 5.75 | –
O=C1NC2NC3NC(=O)NC3NC2N1 (stereo unspecified) | > 200 | > 200 | –
Cc1n[nH]c2ccccc2c1=O | > 676 | 490 | –
CSC(SC)=C1C(=O)N(c2ccccc2)N=C1C | > 200 | 37.2 | –
